Laboratory results: US20090203064A1, “METHOD AND DEVICE FOR MONITORING PLATELET FUNCTION” (PLACOR INC., priority 2002, published 2009)

Test system: platelet function
Assay: Platelet plug formation time of arterial blood from pigs receiving platelet inhibitors (wire-in-tube device)
Type: in vivo
Procedure: Pigs were placed on various platelet inhibitors and then the platelet function of the pigs was monitored. Twenty-five pigs received 300 mg aspirin daily for seven days. Ten pigs received 300 mg ticlopidine (an ADP inhibitor) daily. Ten pigs received a combination of 300 mg aspirin and 300 mg ticlopidine daily. Twenty microliters of blood were drawn into the lumen of the tube at a rate of 1.0 microliter per second. The wire was 0.016 inches in diameter and the inner diameter of the tube was 0.034 inches in diameter. Blood (20 μl) was delivered via a three-way flow divider (a Touhy-Borst Connector) into a TEFLON tube 2 inches long with a stainless steel wire […] in diameter inserted through the tube and extending about three-fourths of the length of the tube. The wire was held in place at the end of the tube. The tube was coupled to a Hamilton syringe pump and to a HP blood pressure transducer for measuring the pressure in the tube. The platelet plug formation time was determined as damping of the blood pressure signal.

Structure (SMILES)	Mean platelet plug time (300 mg aspirin daily, after 3 days)	Mean platelet plug time (300 mg aspirin daily, after 7 days)	Mean platelet plug time (300 mg ticlopidine daily, after 3 days) [min]	Mean platelet plug time (300 mg ticlopidine daily, after 7 days) [min]
CC(=O)Oc1ccccc1C(=O)O [aspirin]	3.9 (± 0.25) minutes	4.6 (± 0.42) minutes		
Clc1ccccc1CN1CCc2sccc2C1 [ticlopidine]			5.67	6.21
